From patent US20230279002A1, “Polymorphs of Crystalline Forms of 3,10-dimethoxy-5,8,13,13a-tetrahydro-6H-isoquinolino[3,2-a]isoquinolin-9-yl 3-fluorobenzenesulfonate and Salts Thereof” (CVI Pharmaceuticals Limited, priority 2020, published 2023)
Read-outs that look alike come from different tables or passages of the source.

Columns and labels:
Assay type in all cases: physicochemical
[1] = DVS (Dynamic Vapor Sorption) moisture sorption/desorption, hygroscopicity classification
Description: DVS (Dynamic Vapor Sorption): Around 10-20 mg of samples were used to test its moisture sorption/desorption profiles at 25° C. under 0%˜95%˜0% relative humidity (RH) cycle using dm/dt: 0.01%/min equilibrium and a measurement step of 5% RH.
Hygroscopicity Classification: Typical %-moisture gain as a function of increased RH was determined by DVS. Samples went through a dynamic test isothermally at 25° C. The test was divided into 2 processes, one was absorption process, the other was desorption process. RH ranged from 0% to 95% with 5% RH for each step, and when dm/dt<=0.01%, it was assumed the water sorption/desorption equilibrium is reached.

[2] = Solubility in SGF, FaSSIF, FeSSIF, 0.1M HCl, pH 4.5 and pH 6.8 aqueous at 25° C. (HPLC); settings: for solubility: 25 °C, thermodynamic from solid, read-out: Solubility conc.(mg/ml); for Final pH: solubility test
Description: Solubility: Excess drug substance was equilibrated with SGF (Simulated Gastric Fluid), FaSSIF (Simulated Small Intestinal Fluid under Fasted state), FeSSIF (Simulated Small Intestinal Fluid under Fed state), 0.1M HCl, pH 4.5 aqueous, and pH 6.8 aqueous at 25° C. After stirring for 20˜24 h, each sample was filtered, diluted appropriately and analyzed by HPLC. The experiment was terminated once a solubility target of 5 mg/mL was reached.

[3] = Solid stability at 40° C./0% RH (closed) and 40° C./75% RH (open), HPLC; settings: for 0 day % remaining / 7 day % remaining / 21 day % remaining: solid
How it was run: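 Solid compound (5 mg) stored in the dark at 40 °C/0% RH in closed vials and at 40 °C/75% RH open. Samples analysed by HPLC at day 0, 5 and 10, or at days 0, 7 and 21, depending on the study.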

[4] = Solution stability in 0.1 N HCl, pH 4.5 buffer and pH 6.8 buffer at 25° C. and 37° C., HPLC; settings: for Remaining %: 50 μg/mL, 40% MeOH; for Solution stability: 0.1 N HCl, pH 4.5 buffer and pH 6.8 buffer
Description: Solution stability: A stock solution of compound (1.0 mg/mL) in MeOH was diluted with 0.1 N HCl, pH 4.5 buffer (acetate) and pH 6.8 buffer to reach constant ionic strength of 0.15 M and the same final concentration (50 μg/mL, 40% MeOH).
A stock solution of 1b and 3b (1.0 mg/mL) in MeOH was diluted with pH 6.8 buffer to reach constant ionic strength of 0.15M and the same final concentration (25 μg/mL, 40% […]).
The solutions were stored at 25° C. and 37° C.

[5] = TGA (Thermal Gravimetric Analysis) weight loss; settings: DSC and TGA
Description: TGA (Thermal Gravimetric Analysis): Samples of compounds (4˜6 mg) were weighed into the pan, and heated under nitrogen purge using a ramp rate of 20° C./min over the range of 30° C.˜350° C.

COc1ccc2c(c1)CCN1Cc3c(ccc(OC)c3OS(=O)(=O)c3cccc(F)c3)C[C@@H]21 [Compound 2b]
Hygroscopicity classification by DVS ([1]; 25 °C): not hygroscopic
Change In Mass (%) - ref, Desorption ([1]; Cycle 1, target RH 0.0%): −0.0081%
Change In Mass (%) - ref, Sorption ([1]; Cycle 1, target RH 0.0%): 0.0011%
Change In Mass (%) - ref, Desorption ([1]; Cycle 1, target RH 5.0%): −0.0035%
Change In Mass (%) - ref, Hysteresis ([1]; Cycle 1, target RH 5.0%): −0.0042%
Change In Mass (%) - ref, Sorption ([1]; Cycle 1, target RH 5.0%): 0.0007%
Change In Mass (%) - ref, Desorption ([1]; Cycle 1, target RH 10.0%): 0.0000%
Change In Mass (%) - ref, Hysteresis ([1]; Cycle 1, target RH 10.0%): −0.0032%
Change In Mass (%) - ref, Sorption ([1]; Cycle 1, target RH 10.0%): 0.0032%
Change In Mass (%) - ref, Desorption ([1]; Cycle 1, target RH 15.0%): 0.0011%
Change In Mass (%) - ref, Hysteresis ([1]; Cycle 1, target RH 15.0%): −0.0033%
Change In Mass (%) - ref, Sorption ([1]; Cycle 1, target RH 15.0%): 0.0044%
Change In Mass (%) - ref, Desorption ([1]; Cycle 1, target RH 20.0%): 0.0044%
Change In Mass (%) - ref, Hysteresis ([1]; Cycle 1, target RH 20.0%): −0.0037%
Change In Mass (%) - ref, Sorption ([1]; Cycle 1, target RH 20.0%): 0.0081%
Change In Mass (%) - ref, Desorption ([1]; Cycle 1, target RH 25.0%): 0.0062%
Change In Mass (%) - ref, Hysteresis ([1]; Cycle 1, target RH 25.0%): −0.0037%
Change In Mass (%) - ref, Sorption ([1]; Cycle 1, target RH 25.0%): 0.0099%
Change In Mass (%) - ref, Desorption ([1]; Cycle 1, target RH 30.0%): 0.0081%
Change In Mass (%) - ref, Hysteresis ([1]; Cycle 1, target RH 30.0%): −0.0037%
Change In Mass (%) - ref, Sorption ([1]; Cycle 1, target RH 30.0%): 0.0118%
Change In Mass (%) - ref, Desorption ([1]; Cycle 1, target RH 35.0%): 0.0100%
Change In Mass (%) - ref, Hysteresis ([1]; Cycle 1, target RH 35.0%): −0.0033%
Change In Mass (%) - ref, Sorption ([1]; Cycle 1, target RH 35.0%): 0.0134%
Change In Mass (%) - ref, Desorption ([1]; Cycle 1, target RH 40.0%): 0.0123%
Change In Mass (%) - ref, Hysteresis ([1]; Cycle 1, target RH 40.0%): −0.0026%
Change In Mass (%) - ref, Sorption ([1]; Cycle 1, target RH 40.0%): 0.0150%
Change In Mass (%) - ref, Desorption ([1]; Cycle 1, target RH 45.0%): 0.0185%
Change In Mass (%) - ref, Hysteresis ([1]; Cycle 1, target RH 45.0%): 0.0012%
Change In Mass (%) - ref, Sorption ([1]; Cycle 1, target RH 45.0%): 0.0173%
Change In Mass (%) - ref, Desorption ([1]; Cycle 1, target RH 50.0%): 0.0204%
Change In Mass (%) - ref, Hysteresis ([1]; Cycle 1, target RH 50.0%): 0.0035%
Change In Mass (%) - ref, Sorption ([1]; Cycle 1, target RH 50.0%): 0.0169%
Change In Mass (%) - ref, Desorption ([1]; Cycle 1, target RH 55.0%): 0.0243%
Change In Mass (%) - ref, Hysteresis ([1]; Cycle 1, target RH 55.0%): 0.0056%
Change In Mass (%) - ref, Sorption ([1]; Cycle 1, target RH 55.0%): 0.0187%
Change In Mass (%) - ref, Desorption ([1]; Cycle 1, target RH 60.0%): 0.0264%
Change In Mass (%) - ref, Hysteresis ([1]; Cycle 1, target RH 60.0%): 0.0063%
Change In Mass (%) - ref, Sorption ([1]; Cycle 1, target RH 60.0%): 0.0201%
Change In Mass (%) - ref, Desorption ([1]; Cycle 1, target RH 65.0%): 0.0294%
Change In Mass (%) - ref, Hysteresis ([1]; Cycle 1, target RH 65.0%): 0.0083%
Change In Mass (%) - ref, Sorption ([1]; Cycle 1, target RH 65.0%): 0.0211%
Change In Mass (%) - ref, Desorption ([1]; Cycle 1, target RH 70.0%): 0.0344%
Change In Mass (%) - ref, Hysteresis ([1]; Cycle 1, target RH 70.0%): 0.0074%
Change In Mass (%) - ref, Sorption ([1]; Cycle 1, target RH 70.0%): 0.0270%
Change In Mass (%) - ref, Desorption ([1]; Cycle 1, target RH 75.0%): 0.0382%
Change In Mass (%) - ref, Hysteresis ([1]; Cycle 1, target RH 75.0%): 0.0030%
Change In Mass (%) - ref, Sorption ([1]; Cycle 1, target RH 75.0%): 0.0352%
Change In Mass (%) - ref, Desorption ([1]; Cycle 1, target RH 80.0%): 0.0446%
Change In Mass (%) - ref, Hysteresis ([1]; Cycle 1, target RH 80.0%): 0.0037%
Change In Mass (%) - ref, Sorption ([1]; Cycle 1, target RH 80.0%): 0.0409%
Change In Mass (%) - ref, Desorption ([1]; Cycle 1, target RH 85.0%): 0.0530%
Change In Mass (%) - ref, Hysteresis ([1]; Cycle 1, target RH 85.0%): 0.0030%
Change In Mass (%) - ref, Sorption ([1]; Cycle 1, target RH 85.0%): 0.0500%
Change In Mass (%) - ref, Desorption ([1]; Cycle 1, target RH 90.0%): 0.0689%
Change In Mass (%) - ref, Hysteresis ([1]; Cycle 1, target RH 90.0%): 0.0051%
Change In Mass (%) - ref, Sorption ([1]; Cycle 1, target RH 90.0%): 0.0638%
Change In Mass (%) - ref, Desorption ([1]; Cycle 1, target RH 95.0%): 0.0941%
Change In Mass (%) - ref, Sorption ([1]; Cycle 1, target RH 95.0%): 0.0941%
moisture picked up (DVS) ([1]; at 95% RH, 25 °C): ~0.1%
solubility ([2]; 0.1 N HCl, simulated gastric fluid, 0.1N HCL, solubility of salts transformed to freebase): 0.206 mg/mL
solubility ([2]; FaSSIF (Simulated Small Intestinal Fluid, fasted state), fassif, FaSSIF, solubility of salts transformed to freebase): 0.01 mg/mL
solubility ([2]; FeSSIF (Simulated Small Intestinal Fluid, fed state), fessif, FeSSIF, solubility of salts transformed to freebase): 0.011 mg/mL
Solubility conc.(mg/ml) ([2]; SGF, solubility of salts transformed to freebase): 0.147 mg/mL
solubility ([2]; pH 4.5 acetate buffer (USP), pH 4.5, aqueous buffer, pH 4.5 Acetate Buffer (USP), solubility of salts transformed to freebase): 0.01 mg/mL
solubility ([2]; pH 6.8 phosphate buffer (USP), pH 6.8, aqueous buffer, pH 6.8 Phosphate Buffer (USP), solubility of salts transformed to freebase): 0.008 mg/mL
Final pH ([2]; 0.1N HCL): 1.59
Final pH ([2]; FaSSIF): 6.23
Final pH ([2]; FeSSIF): 4.93
Final pH ([2]; SGF): 1.59
Final pH ([2]; Water): 2.74
Final pH ([2]; pH 4.5 Acetate Buffer (USP)): 4.44
Final pH ([2]; pH 6.8 Phosphate Buffer (USP)): 6.67
solubility ([2]; water, water, Water, solubility of salts transformed to freebase): 0.096 mg/mL
Solid-state stability (HPLC) ([3]; 40° C./0% RH (closed) and 40° C./75% RH (open), dark, up to 3 weeks): substantially stable
0 day % remaining ([3]; 40° C. (0% RH, closed)): 100.0%
7 day % remaining ([3]; 40° C. (0% RH, closed)): 100.4%
21 day % remaining ([3]; 40° C. (0% RH, closed)): 100.0%
0 day % remaining ([3]; 40° C./75% RH (open)): 100.0%
7 day % remaining ([3]; 40° C./75% RH (open)): 100.3%
21 day % remaining ([3]; 40° C./75% RH (open)): 100.1%
Solution stability, overall comparison of 1b, 2b and 3b ([4]; 25° C. and 37° C.): best solution stability behaviors
Remaining % ([4]; 25° C., 0.1N HCL, 0 h): 100.00%
Remaining % ([4]; 25° C., 0.1N HCL, 3 h): 100.07%
Remaining % ([4]; 25° C., 0.1N HCL, 24 h): 100.37%
Solution stability ([4]; 25° C., 24 h): stable
Remaining % ([4]; 25° C., pH 4.5, 0 h): 100.00%
Remaining % ([4]; 25° C., pH 4.5, 3 h): 99.80%
Remaining % ([4]; 25° C., pH 4.5, 24 h): 99.52%
Remaining % ([4]; 25° C., pH 6.8, 0 h): 100.00%
Remaining % ([4]; 25° C., pH 6.8, 3 h): 99.52%
Remaining % ([4]; 25° C., pH 6.8, 24 h): 98.01%
Remaining % ([4]; 37° C., 0.1N HCL, 0 h): 100.00%
Remaining % ([4]; 37° C., 0.1N HCL, 3 h): 100.34%
Remaining % ([4]; 37° C., 0.1N HCL, 24 h): 100.95%
Solution stability ([4]; 37° C., 24 h): stable
Remaining % ([4]; 37° C., pH 4.5, 0 h): 100.00%
Remaining % ([4]; 37° C., pH 4.5, 3 h): 100.00%
Remaining % ([4]; 37° C., pH 4.5, 24 h): 99.45%
Remaining % ([4]; 37° C., pH 6.8, 0 h): 100.00%
Remaining % ([4]; 37° C., pH 6.8, 3 h): 100.28%
Remaining % ([4]; 37° C., pH 6.8, 24 h): 99.86%
Temperature until which there is no weight loss [5]: about 200 °C
